From the supplement of paper PMC10307832

Columns and labels:
Assay in all cases: relative viability (nuclei count vs DMSO), 5 days (fraction); higher = more cells survive
[1] = compound: COC1=CC=C(C=C1)COC2=C(C=C(C=C2)CC3=CN=C(N=C3N)N)OC [GW-2580] + CCNC(=O)c1noc(-c2cc(C(C)C)c(O)cc2O)c1-c1ccc(CN2CCOCC2)cc1 [Luminespib] (partner 0.01 µM)
Outline: (§1)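 Cells from lung cancer lines were seeded into 1536-well plates and, one day later, dosed by pin tool. Treatments were either a single drug or a fixed dose of an anchor drug with five library-drug doses (not always all listed) in √10 steps. After 5 days, nuclei were stained in a one-step fixation (final 0.05% Triton X-100, 1% formaldehyde, 1 ug/ml Hoechst) and counted on 4× images, and relative viability is the treated-to-vehicle nuclei ratio, as the median of duplicate plates.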

[2] = compound: COC1=CC=C(C=C1)COC2=C(C=C(C=C2)CC3=CN=C(N=C3N)N)OC [GW-2580] + Cc1cc(Nc2cc(N3CCN(C)CC3)nc(Sc3ccc(NC(=O)C4CC4)cc3)n2)n[nH]1 [Tozasertib] (partner 0.1 µM)
Outline: as §1

[3] = compound: COC1=CC=C(C=C1)COC2=C(C=C(C=C2)CC3=CN=C(N=C3N)N)OC [GW-2580] + O=C(c1cc(Cc2n[nH]c(=O)c3ccccc23)ccc1F)N1CCN(C(=O)C2CC2)CC1 [Olaparib] (partner 8 µM)
Outline: as §1

[4] = compound: Cc1cnc(Nc2ccc(OCCN3CCCC3)cc2)nc1Nc1cccc(S(=O)(=O)NC(C)(C)C)c1 [Fedratinib] + CS(=O)(=O)N1CCN(Cc2cc3nc(-c4cccc5[nH]ncc45)nc(N4CCOCC4)c3s2)CC1 [Pictilisib] (partner 1 µM)
Outline: as §1

[5] = compound: Cc1cnc(Nc2ccc(OCCN3CCCC3)cc2)nc1Nc1cccc(S(=O)(=O)NC(C)(C)C)c1 [Fedratinib] + NC(=O)Nc1cc(-c2cccc(F)c2)sc1C(=O)N[C@H]1CCCNC1 [AZD7762] (partner 0.2 µM)
Outline: as §1

Row | Cell Line | relative viability ([1]; first compound 0.08 µM) | relative viability ([1]; first compound 0.8 µM) | relative viability ([1]; first compound 2.53 µM) | relative viability ([1]; first compound 8 µM) | relative viability ([2]; first compound 0.08 µM) | relative viability ([2]; first compound 0.8 µM) | relative viability ([2]; first compound 2.53 µM) | relative viability ([2]; first compound 8 µM) | relative viability ([3]; first compound 0.08 µM) | relative viability ([3]; first compound 0.8 µM) | relative viability ([3]; first compound 2.53 µM) | relative viability ([3]; first compound 8 µM) | relative viability ([4]; first compound 0.1 µM) | relative viability ([4]; first compound 0.3162 µM) | relative viability ([4]; first compound 1 µM) | relative viability ([5]; first compound 0.1 µM) | relative viability ([5]; first compound 0.3162 µM) | relative viability ([5]; first compound 1 µM)
1 | NCI-H1975 | 0.186 | 0.5 | 0.162 | 0.193 | 0.854 | 1.06 | 0.614 | 0.654 | 0.815 | 0.864 | 0.874 | 0.806 | 0.301 | 0.315 | 0.15 | 0.562 | 0.676 | 0.566
2 | CAL-12T | 0.335 | 0.439 | 0.347 | 0.575 | 0.422 | 0.365 | 0.349 | 0.297 | 0.743 | 0.817 | 0.726 | 0.69 | 0.454 | 0.615 | 0.162 | 0.594 | 0.618 | 0.666
3 | NCI-H1623 | 0.382 | 0.43 | 0.482 | 0.471 | 0.631 | 0.416 | 0.594 | 0.486 |  |  |  |  |  |  |  |  |  | 
4 | HCC-44 | 1.14 | 0.945 | 0.988 | 1.15 | 1.13 | 0.913 | 0.937 | 0.918 | 1.04 | 1.05 | 1.04 | 1.03 | 0.407 | 0.623 | 0.465 | 0.995 | 1 | 1
5 | EKVX | 0.93 | 0.936 | 0.863 | 0.923 | 0.553 | 0.428 | 0.313 | 0.321 | 0.905 | 0.986 | 0.812 | 0.89 | 0.497 | 0.426 | 0.504 | 0.738 | 0.815 | 0.656
6 | NCI-H1651 | 0.877 | 1.01 | 0.8 | 0.823 | 0.763 | 0.745 | 0.702 | 0.569 | 0.175 | 0.183 | 0.196 | 0.197 | 0.566 | 0.591 | 0.0696 | 0.502 | 0.404 | 0.435
7 | NCI-H1944 | 0.692 | 0.767 | 0.7 | 0.628 | 0.267 | 0.256 | 0.253 | 0.205 | 0.427 | 0.432 | 0.378 | 0.399 | 0.333 | 0.344 | 0.302 | 0.475 | 0.594 | 0.458
8 | NCI-H1703 |  |  |  |  |  |  |  |  | 0.418 | 0.43 | 0.412 | 0.363 | 0.244 | 0.233 | 0.204 | 0.126 | 0.138 | 0.121
9 | Calu-6 |  |  |  |  |  |  |  |  | 0.657 | 0.663 | 0.559 | 0.636 | 0.845 | 0.866 | 0.736 |  |  | 
10 | EBC-1 |  |  |  |  |  |  |  |  | 0.837 | 0.734 | 0.664 | 0.59 | 0.27 | 0.33 | 0.251 |  |  | 
11 | SW 1573 | 0.257 | 0.213 | 0.24 | 0.217 | 0.183 | 0.2 | 0.219 | 0.24 | 0.477 | 0.474 | 0.492 | 0.543 | 0.444 | 0.391 | 0.463 |  |  | 
12 | A-427 | 1.1 | 0.83 | 0.927 | 0.798 | 0.198 | 0.208 | 0.19 | 0.172 | 0.76 | 0.711 | 0.756 | 0.737 | 0.639 | 0.758 | 0.329 | 0.573 | 0.671 | 0.556
13 | NCI-H2347 | 0.491 | 0.656 | 0.369 | 0.471 | 0.538 | 0.745 | 0.508 | 0.401 | 0.538 | 0.616 | 0.54 | 0.595 | 0.584 | 0.513 | 0.561 | 0.757 | 0.645 | 0.857
14 | NCI-H1355 | 0.816 | 0.841 | 0.694 | 0.669 | 0.532 | 0.494 | 0.396 | 0.477 | 0.804 | 0.836 | 0.669 | 0.691 | 0.366 | 0.437 | 0.382 | 0.646 | 0.707 | 0.612
15 | NCI-H358 | 0.34 | 0.344 | 0.364 | 0.463 | 0.103 | 0.117 | 0.11 | 0.104 | 0.652 | 0.658 | 0.635 | 0.621 | 0.319 | 0.395 | 0.26 | 0.502 | 0.49 | 0.438
16 | PC-3 [JPC-3] | 0.719 | 0.774 | 0.544 | 0.705 | 0.89 | 0.916 | 0.891 | 0.854 | 1.12 | 1.26 | 1.03 | 1.15 | 0.694 | 0.836 | 0.56 | 0.775 | 0.976 | 0.668
17 | NCI-H2228 | 0.167 | 0.185 | 0.0943 | 0.183 | 0.28 | 0.351 | 0.226 | 0.235 | 0.667 | 0.828 | 0.785 | 0.635 | 0.363 | 0.432 | 0.127 |  |  | 
